# Biological target: T1, IP receptor (Homo sapiens, UniProt P43119)
# T1 construct: expressed in transfected cells; host or cells: CHO cells stably expressing the IP receptor (CHO-IP)
# Assay: cAMP accumulation in CHO cells stably expressing the IP receptor (CHO-IP), Perkin Elmer AlphaScreen assay
# Assay type: cell-based
# Settings: agonist activity, 1 hour at room temperature
# Protocol: Activity of compounds at the IP receptor (IP receptor) is assessed by measuring cAMP accumulation in CHO cells stably expressing the IP receptor (CHO-IP) using the Perkin Elmer AlphaScreen assay. This technology measures the endogenous production of cAMP, in a non-radioactive luminescence proximity homogenous assay. A biological reaction occurs between streptavidin coated donor beads, biotinylated cAMP and anti-cAMP acceptor beads, bringing the donor and acceptor beads close enough together so that upon excitation a fluorescence signal is produced. On production of endogenous cAMP, competition between the biotinylated cAMP and cellular-derived cAMP causes a reduction in the fluorescent signal. The reduction in signal is proportional to the amount of cAMP being produced, thus it is possible to quantify the amount of cAMP being produced on stimulation with agonist.
# Test and reference compounds are prepared at 100× [final] in 100% DMSO, and diluted 1:3 using a Biomek Fx (Beckman Coulter). This is followed by an intermediate dilution to give 5× [final] in assay buffer (HBSS containing 5 mM HEPES, 0.1% (w/v) BSA). 5 μL of 5× [final] test compounds, reference compounds and buffer/DMSO control are then transferred to a 384-well white OptiPlate, containing 20 μL CHO-IP cell suspension (15,000 cells/well, prepared from frozen), and plate is incubated at room temperature for 1 hour. A cAMP standard curve is constructed for each experiment (concentration range of 10000 nM to 0.001 nM, in assay buffer) and 25 μL of each concentration added to the last two columns of the assay plate. The incubation is terminated by the addition of lysis buffer (dH2O; 0.3% (v v^−1) Tween-20) containing 20 units mL^−1 streptavidin coated donor beads and biotinylated cAMP (pre-incubated for 30 minutes) and 20 units mL^−1 anti-cAMP acceptor beads, which are added to the lysis buffer just before addition to the assay plate. The assay plate is then incubated at room temperature in the dark, for 60 minutes with gentle shaking, and read on the Envision plate reader (Perkin Elmer).
# The raw data of the reference compounds, test compounds and controls are converted into cAMP concentrations, using the cAMP standard curve, in Graph Pad Prism (Graph Pad Software Inc). EC50 as well as maximal values of the agonist curves are determined using a 4-parameter logistic equation. The % maximum response values of all test compounds are determined using the top of the treprostinil concentration-response curve.
# T1 sequence (P43119 whole entry): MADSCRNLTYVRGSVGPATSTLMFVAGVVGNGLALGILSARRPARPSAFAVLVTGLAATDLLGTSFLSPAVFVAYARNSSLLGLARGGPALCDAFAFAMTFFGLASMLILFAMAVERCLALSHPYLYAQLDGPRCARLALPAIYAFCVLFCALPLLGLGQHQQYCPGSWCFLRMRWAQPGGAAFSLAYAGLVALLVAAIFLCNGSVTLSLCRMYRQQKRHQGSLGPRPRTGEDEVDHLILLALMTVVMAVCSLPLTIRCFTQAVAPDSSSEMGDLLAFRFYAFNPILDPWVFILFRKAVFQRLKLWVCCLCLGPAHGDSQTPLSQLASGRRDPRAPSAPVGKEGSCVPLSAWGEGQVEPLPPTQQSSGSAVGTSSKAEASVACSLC
row,EC50,SMILES
1,5.9 nM,"Cc1ccc(-c2nc3c(nc2-c2ccc(C)cc2)N(CCCCCCC(=O)NS(=O)(=O)Cc2ccccc2)CCC3)cc1 [Example 12, N-(Benzylsulfonyl)-7-(2,3-di-p-tolyl-7,8-dihydropyrido[2,3-b]pyrazin-5(6H)-yl)heptanamide]"
2,75.9 nM,"Cc1ccc(-c2nc3c(nc2-c2ccc(C)cc2)N(CCCCCCC(=O)N(C)C)CCC3)cc1 [Example 12.7, 7-(2,3-Di-p-tolyl-7,8-dihydropyrido[2,3-b]pyrazin-5(6H)-yl)-N,N-dimethylheptanamide]"
3,7 nM,"Cc1ccc(-c2nc3c(nc2-c2ccc(C)cc2)N(CCCCCCCCC(=O)O)C(=O)CC3)cc1 [Example 8, 9-(6-Oxo-2,3-di-p-tolyl-7,8-dihydropyrido[2,3-b]pyrazin-5(6H)-yl)nonanoic acid]"
4,40.2 nM,"Cc1ccc(-c2nc3c(nc2-c2ccc(C)cc2)N(CCCCCCC(=O)NCc2ccccc2)CCC3)cc1 [Example 12.1, N-Benzyl-7-(2,3-di-p-tolyl-7,8-dihydropyrido[2,3-b]pyrazin-5(6H)-yl)heptanamide]"
5,2.3 nM,"O=C(O)CCCCCCN1C(=O)CCc2nc(-c3ccc(Cl)cc3)c(-c3ccc(Cl)cc3)nc21 [Example 7.1, 7-(2,3-Bis(4-chlorophenyl)-6-oxo-7,8-dihydropyrido[2,3-b]pyrazin-5(6H)-yl)heptanoic acid]"
6,0.7 nM,"Cc1ccc(-c2nc3c(nc2-c2ccc(C)cc2)N(CCCCCCC(=O)NS(C)(=O)=O)CCC3)cc1 [Example 13.4, 7-(2,3-Di-p-tolyl-7,8-dihydropyrido[2,3-b]pyrazin-5(6H)-yl)-N-(methylsulfonyl) heptanamide]"
7,0.3 nM,"Cc1ccc(-c2nc3c(nc2-c2ccc(C)cc2)N(CCCCCC(=O)O)CCC3)cc1 [Example 10, 6-(2,3-Di-p-tolyl-7,8-dihydropyrido[2,3-b]pyrazin-5(6H)-yl)hexanoic acid]"
8,40.7 nM,"Cc1ccc(-c2nc3c(nc2-c2ccc(C)cc2)N(CCCCCCC(=O)Nc2ccccc2)CCC3)cc1 [Example 12.5, 7-(2,3-Di-p-tolyl-7,8-dihydropyrido[2,3-b]pyrazin-5(6H)-yl)-N-phenylheptanamide]"
9,0.2 nM,"Cc1ccc(-c2nc3c(nc2-c2ccc(C)nc2)N(CCCCCCC(=O)O)CCC3)cc1 [Example 7, 7-(3-(6-Methylpyridin-3-yl)-2-p-tolyl-7,8-dihydropyrido[2,3-b]pyrazin-5(6H)-yl)heptanoic acid]"
10,0.4 nM,"Cc1ccc(-c2nc3c(nc2-c2ccc(C)cc2)N(CCCCCCC(=O)NO)CCC3)cc1 [Example 12.9, 7-(2,3-Di-p-tolyl-7,8-dihydropyrido[2,3-b]pyrazin-5(6H)-yl)-N-hydroxyheptanamide]"
11,0.3 nM,"Cc1ccc(-c2nc3c(nc2-c2ccc(Cl)cc2)N(CCCCCCC(=O)O)C(=O)CC3)cc1 [Example 7.3, 7-(3-(4-Chlorophenyl)-6-oxo-2-p-tolyl-7,8-dihydropyrido[2,3-b]pyrazin-5(6H)-yl)heptanoic acid]"
12,1.8 nM,"Cc1ccc(-c2nc3c(nc2-c2ccc(C)cc2)N(CCCCC(O)CC(=O)O)CCC3)cc1 (single isomer, unassigned) [Example 17b, (R)-7-(2,3-Di-p-tolyl-7,8-dihydropyrido[2,3-b]pyrazin-5(6H)-yl)-3-hydroxyheptanoic acid or (S)-7-(2,3-Di-p-tolyl-7,8-dihydropyrido[2,3-b]pyrazin-5(6H)-yl)-3-hydroxyheptanoic acid]"
13,55.6 nM,"Cc1ccc(-c2nc3c(nc2-c2ccc(C)cc2)N(CCCCCC(=O)NO)CCC3)cc1 [Example 12.10, 6-(2,3-Di-p-tolyl-7,8-dihydropyrido[2,3-b]pyrazin-5(6H)-yl)-N-hydroxyhexanamide]"
14,6.4 nM,"Cc1ccc(-c2nc3c(nc2-c2ccc(C)cc2)N(CCCCCCC(=O)NS(=O)(=O)c2ccccc2)CCC3)cc1 [Example 12.2, 7-(2,3-Di-p-tolyl-7,8-dihydropyrido[2,3-b]pyrazin-5(6H)-yl)-N-(phenylsulfonyl) heptanamide]"
15,66.2 nM,"Cc1ccc(-c2nc3c(nc2-c2ccc(C)cc2)N(CCCCCCC(=O)NS(=O)(=O)Cc2ccccc2)CCC3O)cc1 (single isomer, unassigned) [Example 13.3, (R)—N-(benzylsulfonyl)-7-(8-hydroxy-2,3-di-p-tolyl-7,8-dihydropyrido[3,2-b]pyrazin-5(6H)-yl)heptanamide or (S)—N-(benzylsulfonyl)-7-(8-hydroxy-2,3-di-p-tolyl-7,8-dihydropyrido[3,2-b]pyrazin-5(6H)-yl)heptanamide]"

# Second part, the molecule before the results:
row,SMILES,EC50
1,"COC1CCN(CCCCCCC(=O)O)c2nc(-c3ccc(C)cc3)c(-c3ccc(C)cc3)nc21 (racemic) [Example 3.1, rac-7-(8-Methoxy-2,3-di-p-tolyl-7,8-dihydropyrido[2,3-b]pyrazin-5(6H)-yl)heptanoic acid]",0.8 nM
2,"O=C(O)CCCCCCN1CCCc2nc(-c3ccc(F)cc3F)c(-c3ccc(F)cc3F)nc21 [Example 4, 7-(2,3-Bis(2,4-difluorophenyl)-7,8-dihydropyrido[2,3-b]pyrazin-5(6H)-yl)heptanoic acid]",0.7 nM
3,"Cc1ccc(-c2nc3c(nc2-c2ccc(C)cc2)N(CCCCCCC(=O)O)C(=O)C(C(C)(C)O)C3)cc1 (single isomer, unassigned) [Example 1.1, rac-7-(7-(2-Hydroxypropan-2-yl)-6-oxo-2,3-di-p-tolyl-7,8-dihydropyrido[2,3-b]pyrazin-5(6H)-yl)heptanoic acid]",0.3 nM
4,"CCC1Cc2nc(-c3ccc(C)cc3)c(-c3ccc(C)cc3)nc2N(CCCCCCC(=O)O)C1 (stereo not drawn) [Example 2.1, 7-(7-Ethyl-2,3-di-p-tolyl-7,8-dihydropyrido[2,3-b]pyrazin-5(6H)-yl)heptanoic acid]",0.4 nM
5,"CO[C@@H]1CCN(CCCCCCC(=O)O)c2nc(-c3ccc(C)cc3)c(-c3ccc(C)cc3)nc21 (single isomer, unassigned) [Example 3.2, (R)-7-(8-methoxy-2,3-di-p-tolyl-7,8-dihydropyrido[2,3-b]pyrazin-5(6H)-yl)heptanoic acid or (S)-7-(8-methoxy-2,3-di-p-tolyl-7,8-dihydropyrido[2,3-b]pyrazin-5(6H)-yl)heptanoic acid]",13.6 nM
6,"Cc1ccc(-c2nc3c(nc2-c2ccc(C)cc2)N(CCCCCCC(=O)O)CC(C(C)(C)O)C3)cc1 (single isomer, unassigned) [9.2(i), (R)-7-(7-(2-hydroxypropan-2-yl)-2,3-di-p-tolyl-7,8-dihydropyrido[2,3-b]pyrazin-5(6H)-yl)heptanoic acid or (S)-7-(7-(2-hydroxypropan-2-yl)-2,3-di-p-tolyl-7,8-dihydropyrido[2,3-b]pyrazin-5(6H)-yl)heptanoic acid]",12.7 nM
7,"Cc1ccc(-c2nc3c(nc2-c2ccc(C)cc2)N(CCCCCCCC(=O)O)C(=O)CC3)cc1 [Example 1.2, 8-(6-Oxo-2,3-di-p-tolyl-7,8-dihydropyrido[2,3-b]pyrazin-5(6H)-yl)octanoic acid]",1.9 nM
8,"Cc1ccc(-c2nc3c(nc2-c2ccc(F)cc2)CCCN3CCCCCCC(=O)O)cc1 [Example 2.8, 7-(2-(4-Fluorophenyl)-3-p-tolyl-7,8-dihydropyrido[2,3-b]pyrazin-5(6H)-yl)heptanoic acid]",0.4 nM
9,"CCC1CCc2nc(-c3ccc(C)cc3)c(-c3ccc(C)cc3)nc2N1CCCCCCC(=O)O (single isomer, unassigned) [2.3(ii), (R)-7-(6-Ethyl-2,3-di-p-tolyl-7,8-dihydropyrido[2,3-b]pyrazin-5(6H)-yl)heptanoic acid or (S)-7-(6-Ethyl-2,3-di-p-tolyl-7,8-dihydropyrido[2,3-b]pyrazin-5(6H)-yl)heptanoic acid]",0.3 nM
10,"COc1ccc(-c2nc3c(nc2-c2ccc(C)cc2)N(CCCCCCC(=O)O)CCC3)cc1 [Example 2.10, 7-(2-(4-Methoxyphenyl)-3-p-tolyl-7,8-dihydropyrido[2,3-b]pyrazin-5(6H)-yl)heptanoic acid]",0.4 nM
11,"Cc1ccc(-c2nc3c(nc2-c2ccc(C)cc2)N(CCCCCCC(=O)O)C(=O)C(O)C3)cc1 (single isomer, unassigned) [11(ii), (R)-7-(7-hydroxy-6-oxo-2,3-di-p-tolyl-7,8-dihydropyrido[2,3-b]pyrazin-5(6H)-yl) heptanoic acid or (S)-7-(7-hydroxy-6-oxo-2,3-di-p-tolyl-7,8-dihydropyrido[2,3-b]pyrazin-5(6H)-yl) heptanoic acid]",0.5 nM
12,"CCC1CCc2nc(-c3ccc(C)cc3)c(-c3ccc(C)cc3)nc2N1CCCCCCC(=O)O (single isomer, unassigned) [2.3(i), (R)-7-(6-Ethyl-2,3-di-p-tolyl-7,8-dihydropyrido[2,3-b]pyrazin-5(6H)-yl)heptanoic acid or (S)-7-(6-Ethyl-2,3-di-p-tolyl-7,8-dihydropyrido[2,3-b]pyrazin-5(6H)-yl)heptanoic acid]",4.8 nM

# From US9115129B2, “Substituted pyrido[2,3-B]pyrazines as IP receptor agonists” (Novartis AG, priority 2012, dated 2015)
